For series [1] the following is noted: cited from earlier work.
The nature of series [2]: Cumulative release of albumin from a controlled-release device. The format is physicochemical. The protocol: Bovine serum albumin (MW 68,000) was dissolved in phosphate buffered saline and loaded into a device designed to deliver a loading dose. After an initial burst release, the rate becomes constant. Data are plotted as the cumulated delivery of albumin over time, measured as described for FIG. 5. Approximately 10 mg was delivered in 24 hours.

Where two headings read alike, the source gives them in different places. Where only a bound is given, the exact number is not on record here.

Turning to `[Ca+2]` [calcium], the figures for the “absorption, share of the total” value in series [1] (ileum), in series [1] (jejunum) and in series [1] (stomach) were 60%, 20% and below 2%, respectively.
Take “Bovine serum albumin: Bovine serum albumin (MW 68,000) in phosphate buffered saline, loaded into a device designed to deliver a loading dose”: in series [2] (after an initial burst release), the “release kinetics of albumin” value is reported as “zero order rate release of albumin over a duration of 24 hours”. For the same compound, in series [2] (in 24 hours, device designed to deliver a loading dose), the “cumulated delivery of albumin” value is recorded as “Approximately 10 mg”.

The values are drawn from US7090861B2, “Sustained release delivery systems for solutes” (Farrington Pharmaceuticals, LLC, priority 2000, dated 2006).
